Reference: patent US6743640B2, “Fluorescent polymer-QTL approach to biosensing” (priority 2000, dated 2004)

Target: avidin (Gallus gallus, UniProt P02701)
Experiment: Competitive avidin-biotin fluorescence quench assay with 263 PRU cyanine polymer
Experimental: A preferred embodiment for using a cyanine polymer/QTL approach consists of a competitive assay based on selective quenching of a cyanine polymer solution. For example, a 263 polymer repeat unit (PRU) cyanine polymer can be conveniently used in a fluorescence quench competitive bioassay. A competitive assay involving the avidin-biotin receptor-ligand system was conducted as follows: 500 μl of 0.1 μM of this polymer was added to the filtrate (lower) chamber of each of 3 separate Microcon YM-30 centrifugal filter vials. In each of these devices the filtrate chamber is separated from the retentate (upper) chamber by a 30 kilodalton (KD) nominal molecular weight cutoff (NMWCO) cellulose membrane. This membrane is impermeable to the 66 KD protein avidin but allows the biotin-anthraquinone conjugate to pass. […] Since each avidin has four biotin binding sites, this sub-stoichiometric ratio ensures full binding of all QTL conjugate to avidin. The three retentate chambers were charged with a.) 0.5 μM D-Biotin, b. and c.) 0.8 μM AQS-biotin conjugate complexed with 1.0 μM avidin. The 3 tubes were then each sealed and incubated for 10 minutes, after which time 0.5 μM D-Biotin was added to vial c. […] The fluorescence emission of all three filtrates was then measured at 20.0° C.+/−0.1° C. on a SPEX FluoroMax-3. […]

Sequence of avidin (P02701 25-152, species assumed): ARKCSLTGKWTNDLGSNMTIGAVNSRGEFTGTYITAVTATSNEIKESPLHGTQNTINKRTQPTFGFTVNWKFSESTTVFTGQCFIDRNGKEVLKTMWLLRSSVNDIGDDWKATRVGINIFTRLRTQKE

Structure (SMILES): O=C(O)CCCC[C@@H]1SC[C@@H]2NC(=O)N[C@@H]21 [biotin, D-Biotin]
- quenching of cyanine polymer after adding competitor to QTL-avidin solution (0.8 μM AQS-biotin conjugate with 1.0 μM avidin): quenching occurred
- quenching of cyanine polymer in filtrate, sample alone (sample alone in retentate chamber, 30 KD membrane, 263 PRU polymer 0.1 μM): no quenching
